# Legend:
# HMV2 human melanoma = experiment: In vitro anti-tumor activity against HMV-2 human melanoma (MTT); format: cell-based; conditions: HMV-2, 72 h, MTT, read-out: IC50
# Procedure, shortened: (§1)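 500–2,000 cells per well were pre-cultured 20 h at 37° C, 5% CO2, then exposed to test compound for 72 h. MTT (5 mg/ml) was added for 4 h, supernatant removed and formazan dissolved in DMSO.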
# [1] = test system: WiDr human colorectal cancer; experiment: In vitro anti-tumor activity against WiDr human colorectal cancer (MTT); format: cell-based; conditions: 72 h, MTT, read-out: IC50
# Procedure, shortened: as §1
# [2] = test system: murine P388 lymphocytic leukemia cells; experiment: In vitro anti-tumor activity against murine P388 lymphocytic leukemia cells (MTT, 72 h); format: cell-based; conditions: Mus musculus; murine P388 cells, 72 h, MTT; read-out: IC50 (50% proliferation inhibitory concentration)
# Procedure, shortened: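 MTT assay, 72 h exposure; formazan dissolved in DMSO after centrifugation and supernatant removal. Absorbance read at 570 nm with 690 nm reference. IC50 (μg/ml) by least squares.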
# C33A human cervix cancer = experiment: In vitro anti-tumor activity against C-33A human cervix cancer (MTT); format: cell-based; conditions: C-33A, 72 h, MTT, read-out: IC50
# Procedure, shortened: as §1
# [3] = test system: colon 26 murine tumor cells; experiment: Tumor growth inhibition effect on colon 26 murine tumor cells implanted mice; format: in vivo, SLC: CDF1 mice; conditions: Mus musculus, Colon 26, 504 h; ip, 1.56 mg/kg once a day, days 1-9; day 21 or 22; read-out: Tumor growth inhibition rate IR (%)
# Procedure, shortened: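 CDF1 female mice (7–9 weeks, 7 per group) implanted intracutaneously in the abdomen with 2% brei of colon 26 cells. Compound given ip once daily from day 1 to day 9. Tumor weight estimated from diameters on day 21 or 22; IR % = [1 − (treated MTW/control MTW)] × 100.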
structure (smiles),measurement,setting,value
"CN[C@@H]1CN(c2ccc3c(=O)c(C(=O)O)cn(-c4nccs4)c3n2)C[C@H]1OC.Cl (relative stereo) [Compound 1-1, 1,4-dihydro-7-(trans-3-methoxy-4-methylamino-1-pyrrolidinyl)-4-oxo-1-(2-thiazolyl)-1,8-naphthyridine-3-carboxylic acid hydrochloride]",IC50,HMV2 human melanoma,0.131 µg/mL
same,IC50,[1],0.379 µg/mL
same,IC50,[2],0.0107 µg/mL
same,IC50,C33A human cervix cancer,0.137 µg/mL
same,inhibition in vivo at 1.56 mg/kg,[3],86%

# Source: patent publication US5817669A, “Compounds, processes for the preparation thereof and anti-tumor agents” (Dainippon Pharmaceutical Co., Ltd., priority 1994, dated 1998)
